Activity calls are given as the source filed them. The rule behind the calls is not given here.
Tests used:
[1] = target: T1, Free fatty acid receptor 1 (Homo sapiens, UniProt O14842); test: Agonist activity at human FFA1 receptor expressed in CHO cells assessed as increase in intracellular calcium flux by Fluo 4AM dye-based FLIPR assay; type: functional, cell-based
[2] = target: T1, Free fatty acid receptor 1; test: Agonist activity at human FFA1 receptor expressed in CHO cells assessed as increase in intracellular calcium flux at 10 uM by Fluo 4AM dye-based FLIPR assay relative to TAK-875; type: functional, cell-based
[3] = Octanol/phosphate buffer distribution coefficient, log D of the compound at 100 uM at pH 7.4 after 24 hrs by shake flask method; type: physicochemical
HepG2 = test: Apoptotic cytotoxicity in human HepG2 cells assessed as caspase-3/7 activity at 30 uM after 24 hrs by caspase-glo-3/7 assay relative to staurosporine; type: cell-based; conditions: hepg2, 24 h
[4] = Clearance in fasted Sprague-Dawley rat at 10 mg/kg, po administered as single dose measured up to 24 hrs post dose by LC-PDA-MS/MS analysis; type: ADME, organism-based; conditions: in vivo
[5] = Cmax in fasted Sprague-Dawley rat at 10 mg/kg, po administered as single dose measured up to 24 hrs post dose by LC-PDA-MS/MS analysis; type: ADME, organism-based; design: dose 10 mg/kg, route oral; conditions: in vivo
[6] = AUC (0 to 24 hrs) in fasted Sprague-Dawley rat at 10 mg/kg, po administered as single dose measured up to 24 hrs post dose by LC-PDA-MS/MS analysis; type: ADME, organism-based; design: time < 24 hr, dose 10 mg/kg, route oral; conditions: in vivo
[7] = Half life in fasted Sprague-Dawley rat at 10 mg/kg, po administered as single dose measured up to 24 hrs post dose by LC-PDA-MS/MS analysis; type: ADME, organism-based; conditions: in vivo
[8] = Drug metabolism in Sprague-Dawley rat plasma assessed as beta-oxidation metabolite formation at 10 mg/kg, po measured up to 24 hrs post dose by LC-PDA-MS/MS analysis; type: ADME, organism-based; conditions: in vivo
[9] = Drug metabolism in Sprague-Dawley rat plasma assessed as cytochrome P450-mediated 2'-chlorobiphenyl-3-carboxylic acid formation at 10 mg/kg, po measured up to 24 hrs post dose by LC-PDA-MS/MS analysis; type: ADME, organism-based; conditions: in vivo
[10] = Drug metabolism in Sprague-Dawley rat plasma assessed as 2-(2-(4-((2'-chlorobiphenyl-3-yl)methoxy)phenylsulfonyl)acetamido)ethanesulfonic acid formation at 10 mg/kg, po measured up to 24 hrs post dose by LC-PDA-MS/MS analysis; type: ADME, organism-based; conditions: in vivo
[11] = Drug metabolism in Sprague-Dawley rat plasma assessed as (2S,3R,4S,5S,6R)-3,4,5-trihydroxy-6-(hydroxymethyl)tetrahydro-2H-pyran-2-yl 2-(4-((2'-chlorobiphenyl-3-yl)methoxy)phenylsulfonyl)acetate formation at 10 mg/kg, po measured up to 24 hrs post dose by LC-PDA-MS/MS analysis; type: ADME, organism-based; conditions: in vivo
Rattus norvegicus [12] = test: Antidiabetic activity in po dosed Sprague-Dawley rat assessed as reduction in plasma glucose excursion administered as single dose followed by subsequent glucose challenge at 60 mins post administration measured up to 120 mins post dose by OGTT method; type: functional, organism-based
Rattus norvegicus [13] = test: Antidiabetic activity in po dosed Sprague-Dawley rat assessed as increase in insulin secretion administered as single dose followed by subsequent glucose challenge at 60 mins post administration measured up to 120 mins post dose by ELISA; type: functional, organism-based
Rattus norvegicus [14] = test: Antidiabetic activity in po dosed Sprague-Dawley rat assessed as reduction in blood glucose AUC (0 to 120 mins) administered as single dose followed by subsequent glucose challenge at 60 mins post administration by OGTT method; type: functional
Rattus norvegicus [15] = test: Antidiabetic activity in po dosed Sprague-Dawley rat assessed as increase in blood insulin AUC (0 to 120 mins) administered as single dose followed by subsequent glucose challenge at 60 mins post administration by ELISA method; type: functional
Mus musculus [16] = test: Antihyperglycemic activity in high fat diet fed/streptozotocin-induced type 2 diabetic C57BL/6 mouse model assessed as reduction in plasma glucose AUC (0 to 120 mins) at 20 mg/kg, po administered as single dose followed by subsequent glucose challenge at 60 mins post administration by OGTT method; type: functional, organism-based
Rattus norvegicus [17] = test: Hypoglycemic effect in fasting Sprague-Dawley rat at 30 mg/kg, po measured up to 180 mins post dose; type: ADME, organism-based; conditions: in vivo, 3 h
Mus musculus [18] = test: Hepatotoxicity in ICR mouse assessed as serum ALT level at 30 mg/kg, dosed daily via oral gavage for 30 days (reference value: 34.7 +/- 5.6 IU/L); type: toxicity, organism-based; conditions: in vivo, 720 h
Mus musculus [19] = test: Hepatotoxicity in ICR mouse assessed as serum AST level at 30 mg/kg, dosed daily via oral gavage for 30 days (reference value: 135.6 +/- 15.2 IU/L); type: toxicity, organism-based; conditions: in vivo, 720 h
Mus musculus [20] = test: Hepatotoxicity in ICR mouse assessed as serum TBIL level at 30 mg/kg, dosed daily via oral gavage for 30 days (reference value: 4.3 +/- 1.3 IU/L); type: toxicity, organism-based; conditions: in vivo, 720 h
Mus musculus [21] = test: Renal toxicity in ICR mouse assessed as BUN level at 30 mg/kg, dosed daily via oral gavage for 30 days (reference value: 7.4 +/- 1.6 mmol/L); type: organism-based; conditions: in vivo, 720 h
Mus musculus [22] = test: Renal toxicity in ICR mouse assessed as serum creatinine level at 30 mg/kg, dosed daily via oral gavage for 30 days (reference value: 40.9 +/- 2.6 umol/L); type: organism-based; conditions: in vivo, 720 h

T1 sequence (O14842 whole entry): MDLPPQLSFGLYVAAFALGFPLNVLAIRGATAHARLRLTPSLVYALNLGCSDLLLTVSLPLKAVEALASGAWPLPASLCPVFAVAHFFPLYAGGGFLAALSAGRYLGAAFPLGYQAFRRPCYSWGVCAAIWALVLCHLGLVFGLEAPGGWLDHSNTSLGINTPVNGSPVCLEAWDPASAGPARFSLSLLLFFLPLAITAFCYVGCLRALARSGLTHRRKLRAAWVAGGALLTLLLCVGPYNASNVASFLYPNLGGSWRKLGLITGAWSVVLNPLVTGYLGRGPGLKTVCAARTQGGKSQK

EC50 [1]: 28.8 nM | Efficacy [2]: 115% | logD at 24 h, 100 µM [3]: 2.47 | CL/F [4]: 2.57 mL/min/kg | Cmax [5]: 2560 ng/mL | AUC(0-t) at 24 h [6]: 30200 ng·h/mL | half-life [7]: 5.57 h | Drug metabolism [8]: Metabolite_Detected | Drug metabolism [9]: Metabolite_Detected | Drug metabolism [10]: Metabolite_Detected | Drug metabolism [11]: Metabolite_Detected
Structure (SMILES): O=C(O)CS(=O)(=O)c1ccc(OCc2cccc(-c3ccccc3Cl)c2)cc1
Activity (HepG2): -1.6% | Activity (Rattus norvegicus [12]): Dose-dependent effect | Activity (Rattus norvegicus [13]): Dose-dependent effect | MEC (Rattus norvegicus [14]): 3 mg/kg | MEC (Rattus norvegicus [15]): 3 mg/kg | Activity (Mus musculus [16]): Active | Activity (Rattus norvegicus [17]): Non-Toxic | Activity (Mus musculus [18]): 35.4 IU/L | Activity (Mus musculus [19]): 128.2 IU/L | Activity (Mus musculus [20]): 4.1 IU/L | Activity (Mus musculus [21]): 7.9 mmol/L | Activity (Mus musculus [22]): 41.4 µmol/L

From ChEMBL document CHEMBL4190257, “Discovery of phenylsulfonyl acetic acid derivatives with improved efficacy and safety as potent free fatty acid receptor 1 agonists for the treatment of type 2 diabetes” (Eur J Med Chem, 2017)
